Reference: article PMC4921870, “The insect repellent N,N-diethyl-m-toluamide (DEET) induces angiogenesis via allosteric modulation of the M3 muscarinic receptor in endothelial cells” (Scientific Reports, 2016)

Target: T1, M3 muscarinic receptor (Homo sapiens, UniProt P20309)
T1 construct: gene CHRM3; recombinant M3 receptor expressed in HEK-293 cells (HEK-293/M3)
Assay: leftward shift of carbachol Ca2+ response in HEK-293/M3 cells (fluo-4); [3H]-4-DAMP not displaced
Assay type: cell-based

T1 sequence (P20309 whole entry): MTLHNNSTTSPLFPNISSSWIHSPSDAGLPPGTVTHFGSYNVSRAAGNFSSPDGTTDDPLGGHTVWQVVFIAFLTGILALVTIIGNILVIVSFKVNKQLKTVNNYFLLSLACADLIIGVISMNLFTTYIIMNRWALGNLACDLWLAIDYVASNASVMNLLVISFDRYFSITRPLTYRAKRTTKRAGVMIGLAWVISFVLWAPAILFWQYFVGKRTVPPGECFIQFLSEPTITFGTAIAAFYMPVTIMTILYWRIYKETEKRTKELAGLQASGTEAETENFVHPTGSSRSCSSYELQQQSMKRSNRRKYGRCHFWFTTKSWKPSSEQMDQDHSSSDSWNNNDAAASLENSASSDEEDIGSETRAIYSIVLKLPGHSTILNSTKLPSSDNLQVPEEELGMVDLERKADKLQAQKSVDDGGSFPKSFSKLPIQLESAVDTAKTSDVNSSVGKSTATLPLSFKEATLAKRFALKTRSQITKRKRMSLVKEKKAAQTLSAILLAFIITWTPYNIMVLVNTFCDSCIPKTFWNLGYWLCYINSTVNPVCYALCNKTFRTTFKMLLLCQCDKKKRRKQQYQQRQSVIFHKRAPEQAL

**Q.** How did the “leftward shift of carbachol Ca2+ response in HEK-293/M3 cells (fluo-4); [3H]-4-D” value turn out when `CCN(CC)C(=O)c1cccc(C)c1` [DEET, N,N-diethyl-meta-toluamide] was run?
**A.** Its value is “Whatever the concentration of DEET used, it was able to induce a leftward shift of the calcium response induced by carbachol”.
